What was measured:
Type in all cases: in vivo
[1] = system: Setaria; assay: Example B4: post-emergence herbicidal action of compounds of the invention; set-up: key: 1=complete damage; 9=no effect; Ratings of 1 to 4 (in particular 1 to 3) mean a good to very good herbicidal action; settings: 3- to 6-leaf stage, 250 g of active substance/ha, 3 weeks after application, scale 1-9
Experimental: (§1) Monocotyledonous and dicotyledonous weeds are grown in standard soil in plastic pots under greenhouse conditions. The test substances are applied at the 3- to 6-leaf stage of the test plants. The test substances are applied (500 l of water/ha) as an aqueous suspension (prepared using a 25% wettable powder (Example F3, b)) or as an emulsion (prepared using a 25% emulsion concentrate (Example F1, c)) at an application rate of 250 g of active substance/ha. 3 weeks after the application, evaluation is carried out using a nine-level scale of ratings (1=complete damage, 9=no effect). Ratings of 1 to 4 (in particular 1 to 3) mean a good to very good herbicidal action. Test plants: Avena (Ave), Lolium (Lol), Setaria (Set).

[2] = system: Avena; assay: as above; set-up: key: 1=complete damage; 9=no effect; Ratings of 1 to 4 (in particular 1 to 3) mean a good to very good herbicidal action; settings: 3- to 6-leaf stage, 250 g of active substance/ha, 3 weeks after application, scale 1-9
Experimental: as §1

[3] = system: Lolium; assay: as above; set-up: key: 1=complete damage; 9=no effect; Ratings of 1 to 4 (in particular 1 to 3) mean a good to very good herbicidal action; settings: 3- to 6-leaf stage, 250 g of active substance/ha, 3 weeks after application, scale 1-9
Experimental: as §1

[4] = system: Avena; assay: Example B1: pre-emergence herbicidal action, comparison with prior art; settings: 500 g of ai/ha, 3 weeks after application, scale 1-9
Source text: (§2) Monocotyledonous and dicotyledonous weeds are sown in standard soil in plastic pots. Immediately after sowing, the test substances are applied (500 l of water/ha) as an aqueous suspension (prepared using a 25% wettable powder (Example F3, b)) or as an emulsion (prepared using a 25% emulsion concentrate (Example F1, c)). The application rate is 500 g of active substance/ha. The test plants are subsequently grown under optimum conditions in a greenhouse. 3 weeks after the application, evaluation is carried out using a nine-level scale of ratings (1=complete damage, 9=no effect). Ratings of 1 to 4 (in particular 1 to 3) mean a good to very good herbicidal action. Test plants: Alopecurus (Alo), Avena (Ave), Lolium (Lot), Setaria (Set), Panicum (Pan), Sorghum (Sor), Digitaria (Dig), Echinocloa (Ech) and Brachiaria (Bra).

[5] = system: Brachiaria; assay: as above; settings: 500 g of ai/ha, 3 weeks after application, scale 1-9
Source text: as §2

[6] = system: Digitaria; assay: as above; settings: 500 g of ai/ha, 3 weeks after application, scale 1-9
Source text: as §2

[7] = system: Alopecurus; assay: as above; settings: 500 g of ai/ha, 3 weeks after application, scale 1-9
Source text: as §2

[8] = system: Setaria; assay: Example B3: pre-emergence herbicidal action of compounds of the invention; set-up: key: 1=complete damage; 9=no effect; Ratings of 1 to 4 (in particular 1 to 3) mean a good to very good herbicidal action; settings: 500 g of active substance/ha, 3 weeks after application, scale 1-9
Experimental: as §1, with “pots. Directly after sowing,” for “pots under greenhouse conditions. The test substances are applied at”, “the” for “the 3- to 6-leaf stage of the test plants. The”, “c)). The” for “c)) at an”, “is 500” for “of 250”, “substance/ha. The test plants are subsequently grown under optimum conditions in a greenhouse” for “substance/ha.”

[9] = system: Avena; assay: as above; set-up: key: 1=complete damage; 9=no effect; Ratings of 1 to 4 (in particular 1 to 3) mean a good to very good herbicidal action; settings: 500 g of active substance/ha, 3 weeks after application, scale 1-9
Experimental: as §1, with “pots. Directly after sowing,” for “pots under greenhouse conditions. The test substances are applied at”, “the” for “the 3- to 6-leaf stage of the test plants. The”, “c)). The” for “c)) at an”, “is 500” for “of 250”, “substance/ha. The test plants are subsequently grown under optimum conditions in a greenhouse” for “substance/ha.”

[10] = system: Lolium; assay: as above; set-up: key: 1=complete damage; 9=no effect; Ratings of 1 to 4 (in particular 1 to 3) mean a good to very good herbicidal action; settings: 500 g of active substance/ha, 3 weeks after application, scale 1-9
Experimental: as §1, with “pots. Directly after sowing,” for “pots under greenhouse conditions. The test substances are applied at”, “the” for “the 3- to 6-leaf stage of the test plants. The”, “c)). The” for “c)) at an”, “is 500” for “of 250”, “substance/ha. The test plants are subsequently grown under optimum conditions in a greenhouse” for “substance/ha.”

[11] = system: Alopecurus; assay: Example B2: post-emergence herbicidal action, comparison with prior art; settings: 3- to 6-leaf stage, 500 g of ai/ha, 3 weeks after application, scale 1-9
Experimental: as §1, with “500” for “250”, “plants: Alopecurus (Alo),” for “plants:”, “(Set), Panicum (Pan), Sorghum (Sor), Digitaria (Dig), Echinocloa (Ech) and Brachiaria (Bra).” for “(Set).”

[12] = system: Panicum; assay: Example B1: pre-emergence herbicidal action, comparison with prior art; set-up: key: 1=complete damage; 9=no effect; Ratings of 1 to 4 (in particular 1 to 3) mean a good to very good herbicidal action; settings: 500 g of ai/ha, 3 weeks after application, scale 1-9
Source text: as §2

[13] = system: Setaria; assay: as above; set-up: key: 1=complete damage; 9=no effect; Ratings of 1 to 4 (in particular 1 to 3) mean a good to very good herbicidal action; settings: 500 g of ai/ha, 3 weeks after application, scale 1-9
Source text: as §2

[14] = system: Echinocloa; assay: as above; set-up: key: 1=complete damage; 9=no effect; Ratings of 1 to 4 (in particular 1 to 3) mean a good to very good herbicidal action; settings: 500 g of ai/ha, 3 weeks after application, scale 1-9
Source text: as §2

[15] = system: Lolium; assay: as above; set-up: key: 1=complete damage; 9=no effect; Ratings of 1 to 4 (in particular 1 to 3) mean a good to very good herbicidal action; settings: 500 g of ai/ha, 3 weeks after application, scale 1-9
Source text: as §2

[16] = system: Sorghum; assay: as above; set-up: key: 1=complete damage; 9=no effect; Ratings of 1 to 4 (in particular 1 to 3) mean a good to very good herbicidal action; settings: 500 g of ai/ha, 3 weeks after application, scale 1-9
Source text: as §2

[17] = system: Panicum; assay: Example B2: post-emergence herbicidal action, comparison with prior art; set-up: key: 1=complete damage; 9=no effect; Ratings of 1 to 4 (in particular 1 to 3) mean a good to very good herbicidal action; settings: 3- to 6-leaf stage, 500 g of ai/ha, 3 weeks after application, scale 1-9
Experimental: as §1, with “500” for “250”, “plants: Alopecurus (Alo),” for “plants:”, “(Set), Panicum (Pan), Sorghum (Sor), Digitaria (Dig), Echinocloa (Ech) and Brachiaria (Bra).” for “(Set).”

[18] = system: Setaria; assay: as above; set-up: key: 1=complete damage; 9=no effect; Ratings of 1 to 4 (in particular 1 to 3) mean a good to very good herbicidal action; settings: 3- to 6-leaf stage, 500 g of ai/ha, 3 weeks after application, scale 1-9
Experimental: as §1, with “500” for “250”, “plants: Alopecurus (Alo),” for “plants:”, “(Set), Panicum (Pan), Sorghum (Sor), Digitaria (Dig), Echinocloa (Ech) and Brachiaria (Bra).” for “(Set).”

[19] = system: Avena; assay: as above; set-up: key: 1=complete damage; 9=no effect; Ratings of 1 to 4 (in particular 1 to 3) mean a good to very good herbicidal action; settings: 3- to 6-leaf stage, 500 g of ai/ha, 3 weeks after application, scale 1-9
Experimental: as §1, with “500” for “250”, “plants: Alopecurus (Alo),” for “plants:”, “(Set), Panicum (Pan), Sorghum (Sor), Digitaria (Dig), Echinocloa (Ech) and Brachiaria (Bra).” for “(Set).”

[20] = system: Brachiaria; assay: as above; set-up: key: 1=complete damage; 9=no effect; Ratings of 1 to 4 (in particular 1 to 3) mean a good to very good herbicidal action; settings: 3- to 6-leaf stage, 500 g of ai/ha, 3 weeks after application, scale 1-9
Experimental: as §1, with “500” for “250”, “plants: Alopecurus (Alo),” for “plants:”, “(Set), Panicum (Pan), Sorghum (Sor), Digitaria (Dig), Echinocloa (Ech) and Brachiaria (Bra).” for “(Set).”

[21] = system: Digitaria; assay: as above; set-up: key: 1=complete damage; 9=no effect; Ratings of 1 to 4 (in particular 1 to 3) mean a good to very good herbicidal action; settings: 3- to 6-leaf stage, 500 g of ai/ha, 3 weeks after application, scale 1-9
Experimental: as §1, with “500” for “250”, “plants: Alopecurus (Alo),” for “plants:”, “(Set), Panicum (Pan), Sorghum (Sor), Digitaria (Dig), Echinocloa (Ech) and Brachiaria (Bra).” for “(Set).”

[22] = system: Echinocloa; assay: as above; set-up: key: 1=complete damage; 9=no effect; Ratings of 1 to 4 (in particular 1 to 3) mean a good to very good herbicidal action; settings: 3- to 6-leaf stage, 500 g of ai/ha, 3 weeks after application, scale 1-9
Experimental: as §1, with “500” for “250”, “plants: Alopecurus (Alo),” for “plants:”, “(Set), Panicum (Pan), Sorghum (Sor), Digitaria (Dig), Echinocloa (Ech) and Brachiaria (Bra).” for “(Set).”

[23] = system: Lolium; assay: as above; set-up: key: 1=complete damage; 9=no effect; Ratings of 1 to 4 (in particular 1 to 3) mean a good to very good herbicidal action; settings: 3- to 6-leaf stage, 500 g of ai/ha, 3 weeks after application, scale 1-9
Experimental: as §1, with “500” for “250”, “plants: Alopecurus (Alo),” for “plants:”, “(Set), Panicum (Pan), Sorghum (Sor), Digitaria (Dig), Echinocloa (Ech) and Brachiaria (Bra).” for “(Set).”

[24] = system: Sorghum; assay: as above; set-up: key: 1=complete damage; 9=no effect; Ratings of 1 to 4 (in particular 1 to 3) mean a good to very good herbicidal action; settings: 3- to 6-leaf stage, 500 g of ai/ha, 3 weeks after application, scale 1-9
Experimental: as §1, with “500” for “250”, “plants: Alopecurus (Alo),” for “plants:”, “(Set), Panicum (Pan), Sorghum (Sor), Digitaria (Dig), Echinocloa (Ech) and Brachiaria (Bra).” for “(Set).”

CCc1cc(C)cc(CC)c1-c1c(O)n2n(c1=O)CCOCC2 [Compound No. 1.007]
1: Post-emergence action, Set (rating) [1] | Post-emergence action, Ave (rating) [2] | Post-emergence action, Lol (rating) [3]

CCc1cc(Br)cc(C)c1-c1c(OC(=O)C(C)(C)C)n2n(c1=O)CCOCC2 [1.085]
2: Post-emergence action, Set (rating) [1] | Post-emergence action, Lol (rating) [3]
1: Post-emergence action, Ave (rating) [2]

Cc1cc(C)c(-c2c(O)n3n(c2=O)CCOCC3)c(C)c1 [1.001]
1: Pre-emergence action, Set (rating) [8] | Pre-emergence action, Lol (rating) [10] | Post-emergence action, Ave (rating) [2] | Post-emergence action, Lol (rating) [3] | Pre-emergence action, Pan (rating) [12] | Pre-emergence action, Set (rating) [13] | Pre-emergence action, Ech (rating) [14] | Pre-emergence action, Lol (rating) [15] | Pre-emergence action, Sor (rating) [16] | Post-emergence action, Pan (rating) [17] | Post-emergence action, Set (rating) [18] | Post-emergence action, Ave (rating) [19] | Post-emergence action, Bra (rating) [20] | Post-emergence action, Dig (rating) [21] | Post-emergence action, Ech (rating) [22] | Post-emergence action, Lol (rating) [23] | Post-emergence action, Sor (rating) [24]
2: Pre-emergence action, Bra (rating) [5] | Pre-emergence action, Dig (rating) [6] | Post-emergence action, Alo (rating) [11] | Post-emergence action, Set (rating) [1]
3: Pre-emergence action, Alo (rating) [7]
4: Pre-emergence action, Ave (rating) [4] | Pre-emergence action, Ave (rating) [9]

Cc1cc(Br)c(-c2c(O)n3n(c2=O)CCOCC3)c(Br)c1 [1.088]
4: Post-emergence action, Ave (rating) [2] | Post-emergence action, Lol (rating) [3]
3: Post-emergence action, Set (rating) [1]

Cc1cc(C)c(-c2c(O)n3n(c2=O)CCOCC3)c(Br)c1 [1.078]
1: Post-emergence action, Ave (rating) [2] | Post-emergence action, Lol (rating) [3]
4: Post-emergence action, Set (rating) [1]
